From US6420374B1, “Use of xanthines as immunosuppressants and to inhibit allograft reactions” (Fred Hutchinson Cancer Research Center, priority 1990, dated 2002)
“Also recorded” adds a separate entry of the source. Like-named read-outs stand apart in the source and are kept apart here.

Experiments:
[1] = system: bidirectional MLR of blood mononuclear cells; test: Bidirectional mixed leukocyte reaction (MLR), tritiated thymidine (3Htdr) uptake; type: cell-based, human; conditions: for inhibition of 3Htdr uptake: blood mononuclear cells with PHA and in bidirectional MLR's, after 6 days in culture, concentration dependent; for T cell activation and proliferation: both by direct stimulation with PHA and in an MLR; for lowest concentration with significant suppression of 3Htdr uptake / most effective concentration (highest concentration tested): PHA / MLR cultures; for suppressing lymphocyte activation evidenced by MLR: in vitro
Excerpt: More particularly, co-cultivation of leukocytes from unrelated individuals leads to blast transformation and proliferation similar to that observed upon addition of mitogens to T-cells. The basis of this reaction appears to be the activation of T-cells from one individual by cell surface markers of another. Co-culturing of blood leukocytes from two individuals is referred to as “mixed leukocyte culture” or “MLC” and the reaction as “mixed leukocyte reaction” or “MLR”. Co-culturing of cells obtained from lymphoid organs is designated “mixed lymphocyte culture” or “mixed lymphocyte reaction”. Since even in the mixed leukocyte reaction, the participating cells are peripheral blood T lymphocytes, there is generally substantially no difference between the two types of culture. Thus, these expressions are used interchangeably herein.
MLR can be carried out using conventional techniques. Cultured cells for the MLR can be derived from peripheral blood, spleen, lymph nodes, or thymus. Cell number can vary by several orders of magnitude. The stimulating cells can be inactivated by irradiation or treatment with an antibiotic to disrupt DNA replication. The culture medium can be supplemented, if necessary, by serum proteins of autologous, syngeneic, allogeneic, or xenogeneic origin. Cultivation can be carried out over a period of several days. The degree of stimulation of responder cells by stimulating cells can be determined from the uptake rate of ^3H-thymidine or radiolabeled amino acids or by counting blasts and dividing cells. If a radiolabel is employed, it can be added to the culture several hours before harvesting.
When blood mononuclear cells from two unrelated individuals are cultured together, mutual stimulation occurs resulting in T cell activation and blastogenesis and ultimately in the generation of cytotoxic T cells and memory cells. This complex series of events, termed the mixed leukocyte reaction (MLR), requires genetic disparaties at the HLA-DR locus. Monocytic cells are needed for antigen processing and presentation. The MLR is thus measures lymphocyte recognition and response to non-self-antigens and serves as an in vitro representation of some of the cellular events associated with graft-versus-host disease (GVHD) and allograft rejection.
(§1) Results are the means SD of triplicate wells.
(§2) All values except those for M1 represent: the means of calculated results from 6 to 8 independent experiments. The M1 results are the average of 2 independent experiments.

TNF mRNA = TNF mRNA level in whole cellular RNA extracted from an MLR; type: cell-based, human; conditions: MLR containing the compound
Excerpt: There was no decrease in cell viability in the test cultures as assessed by trypan blue dye exclusion (cell viability >95% in all groups). When whole cellular RNA was extracted from an MLR, there was some upregulation of […] compared to cultures of the mononuclear cells cultured individually. However, basal levels of TNF mRNA were readily detectable, possibly due to some activation during the culture period. This was also reflected by significant levels of ^3Htdr uptake.

[2] = system: T cell activation antigens (HLA-DR, transferrin receptor, IL-2 receptor, CD69; CD2); test: Expression of T cell activation antigens by direct immunofluorescence after 6 days in a bidirectional MLR; type: cell-based, human; conditions: for expression of CD69 / expression of HLA-DR / expression of the IL-2 receptor / expression of the transferrin receptor: to near the levels of mononuclear cells from a single donor
Description: The following fluorescein isothyoc:yanate (FITC) or phycoerythrin (PE) conjugated antibodies were used: IgGl and IgG2a isotype controls, anti-HLe-1 (CD45), anti-LeuM3 (CD14). anti-Leu4(cd3), anti-IL2-receptor (CD25), anti-transferrin receptor (CD71), anti-HLA-DR, and anti-Leu23 (CD69). (All antibodies were from Becton-Dickinson, San Jose, Calif.) Staining was performed using Manufacturer's recommendations ([…] antibody/10^6 cells in 0.1 ml of phosphate buffered saline for 20′ at room temperature). The cells were washed twice, resuspended and analyzed on a Becton-Dickinson FACSan flow cytometer operating under Consort 30 software. The lymphocyte analysis gate was determined on the basis of forward scatter and side scatter and confirmed by examination of two-color immunofluorescence display for CD4S and CD14. Data are presented as the percentage of cells with fluorescence greater than that of the appropriate isotype control.
During T cell activation, there is increased expression of certain cell surface determinants which can serve as markers of activation.

[3] = cited from earlier work; for rank among the metabolites of pentoxifylline: in vivo
TNF = test: Release of TNF into the culture medium; type: cell-based, human
[4] = system: PHA-stimulated mononuclear cells; test: PHA-stimulated blood mononuclear cells, tritiated thymidine (3Htdr) uptake; type: cell-based, human; conditions: rhTNF 200 U/ml added at inception of culture
Excerpt: as §1, §2

TNF mRNA in U937 cells = conditions: cited from earlier work
[5] = human urine, Metabolites II and III together

CCOCn1cnc2c1c(=O)n(CCCCC(C)(C)O)c(=O)n2C [Compound 1, 7-ethoxymethyl-1-(5-hydroxy-5-methylhexyl)-3-methylxanthine]
inhibition of 3Htdr uptake [1]: actively inhibited | T cell activation and proliferation [1]: suppressed | level of TNF mRNA (TNF mRNA): significantly decreased | expression of CD2 (non-activation dependent pan-T antigen) [2]: no differences | expression of CD69 [2]: decreased | expression of HLA-DR [2]: decreased | expression of the IL-2 receptor [2]: decreased | expression of the transferrin receptor [2]: decreased

CC(O)CCCCn1c(=O)c2c(ncn2C)n(C)c1=O (centres unmarked) [Compound M1, 1-(5-hydroxyhexyl)-3,7-dimethylxanthine]
amount found in urine ([3]; human urine): Only traces | rank among the metabolites of pentoxifylline [3]: major metabolites | lowest concentration with significant suppression of 3Htdr uptake [1]: 0.01 mM | most effective concentration (highest concentration tested) [1]: 1 mM | inhibition of 3Htdr uptake [1]: actively inhibited | T cell activation and proliferation [1]: suppressed

CCCCn1c(=O)c2c(ncn2CC(C)=O)n(CCCC)c1=O [Denbufylline, 7-acetonyl-1,3-dibutyl-xanthine]
suppressing lymphocyte activation evidenced by MLR [1]: not effective | suppressing lymphocyte activation evidenced by MLR ([1]; listed as compound (III)): has not been demonstrated

Cn1cnc2c1c(=O)n(CCCCC(O)CO)c(=O)n2C (centres unmarked) [Metabolite II, 1-(5,6-dihydroxyhexyl)-3,7-dimethylxanthine]
share of the excretion products [3, 5]: approximately 12%

CC(O)C(O)CCCn1c(=O)c2c(ncn2C)n(C)c1=O (centres unmarked) [Metabolite III, 1-(4,5-dihydroxyhexyl)-3,7-dimethylxanthine]
share of the excretion products [3, 5]: approximately 12%

Cn1cnc2c1c(=O)n(CCCCC(=O)O)c(=O)n2C [Metabolite IV, 1-(4-carboxybutyl)-3,7-dimethylxanthine]
share of the excretion products ([3]; human urine): about 8%

Cn1cnc2c1c(=O)n(CCCC(=O)O)c(=O)n2C [Metabolite V, 1-(3-carboxypropyl)-3,7-dimethylxanthine]
share of the administered dose in urine ([3]; human urine, main urinary metabolite): 50-60% | rank among the metabolites of pentoxifylline [3]: major metabolites

CC(=O)CCCCn1c(=O)c2c(ncn2C)n(C)c1=O [PTX, 1-(5-oxohexyl)-3,7-dimethylxanthine]
release of the cytokine (TNF) into the culture medium (TNF): decreased | diminution in response to PHA after addition of recombinant human TNF [4]: not abrogated | lowest concentration with significant suppression of 3Htdr uptake [1]: 0.01 mM | most effective concentration (highest concentration tested) [1]: 1 mM | inhibition of 3Htdr uptake [1]: actively inhibited | T cell activation and proliferation [1]: suppressed | diminution (suppression) of the MLR after addition of recombinant human TNF ([1]; rhTNF 200 U/ml added at inception of culture): not abrogated; also recorded: not reversed | level of TNF mRNA (TNF mRNA): significantly decreased | endotoxin induced upregulation of TNF mRNA (TNF mRNA in U937 cells): can prevent | expression of CD2 (non-activation dependent pan-T antigen) [2]: no differences | expression of CD69 [2]: decreased | expression of HLA-DR [2]: decreased | expression of the IL-2 receptor [2]: decreased | expression of the transferrin receptor [2]: decreased
